Patent publication US20220409629A1, “BENZODIAZEPINE DERIVATIVES FOR TREATING A RESPIRATORY SYNCYTIAL VIRUS (RSV) INFECTION” (priority 2019, published 2022)

Legend:
[1] = system: RSV A2; experiment: RSV plaque reduction assay; format: cell-based, respiratory syncytial virus (RSV); details: Hep-G2 cells, RSV A2, mean of at least two experiments
How it was run: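 RSV A2 (100 PFU/well) premixed with eight serial compound dilutions, added to confluent Hep-G2 monolayers for 2 h at 37° C, then held 2 days under CMC overlay containing compound (DMEM, 2% FBS). Plaques immunostained (HRP/TrueBlue) and counted; EC50 is 50% reduction versus virus control from 4-parameter fit, mean of ≥2 experiments.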

[2] = system: Hep-G2 cells; experiment: Cell cytotoxicity CC50; format: cell-based; details: mean of at least two experiments
[3] = system: RSV; details: Antimicrobial Agents and Chemotherapy, September 2007, 3346-3353; cited from earlier work
[4] = Liver microsomal stability, rat; format: in vitro ADME; details: rat liver microsomes, 0.5 mg/mL protein, 1 μM compound, NADPH, >80% remaining at 45 min denoted >140
How it was run: (§1)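 Pooled liver microsomes (0.5 mg/mL protein) in 0.1 M phosphate pH 7.4 with 1 μM compound (0.25% DMSO), started with 1 mM NADPH at 37° C; sampled 0-45 min, minus-NADPH control 45 min. LC-MS/MS depletion slope gave t1/2 and CLint.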

[5] = Liver microsomal stability, dog; format: in vitro ADME; details: dog liver microsomes, 0.5 mg/mL protein, 1 μM compound, NADPH, >80% remaining at 45 min denoted >140
How it was run: as §1

[6] = Liver microsomal stability, human; format: in vitro ADME; details: human liver microsomes, 0.5 mg/mL protein, 1 μM compound, NADPH, >80% remaining at 45 min denoted >140
How it was run: as §1

[7] = Cell cytotoxicity CC50; format: cell-based; details: human; mean of at least two experiments
[8] = Liver hepatocyte stability, rat; format: in vitro ADME; details: rat hepatocytes, 3 μM compound, 60 min, >80% remaining at 60 min denoted >186, read-out: Liver Hepatocyte Stability: t1/2 (min)
Experimental: (§2) Cryopreserved pooled hepatocytes were purchased from a reputable commercial supplier and stored in liquid nitrogen prior to use. Williams E media supplemented with 2 mM L-glutamine and 25 mM HEPES and test compound (final substrate concentration 3 μM; final DMSO concentration 0.25%) are pre-incubated at 37° C. prior to the addition of a suspension of cryopreserved hepatocytes (final cell density 0.5×10^6 viable cells/mL in Williams E media supplemented with 2 mM L-glutamine and 25 mM HEPES) to initiate the reaction. The final incubation volume is 500 μL. Two control compounds were included with each species, alongside appropriate vehicle control. The reactions are stopped by transferring 50 μL of incubate to 100 μL acetonitrile containing internal standard at the appropriate time points. Samples were removed at 6 time points (0, 5, 15, 30, 45 and 60 min) over the course of a 60 min experiment. The termination plates are centrifuged at 2500 rpm at 4° C. for 30 min to precipitate the protein. Following protein precipitation, the sample supernatants were combined in cassettes of up to 4 compounds and analysed using generic LC-MS/MS conditions. From a plot of ln peak area ratio (compound peak area/internal standard peak area) against time, the gradient of the line is determined. Subsequently, half-life (t1/2) and intrinsic clearance (CLint) were calculated.

[9] = Liver hepatocyte stability, dog; format: in vitro ADME; details: dog hepatocytes, 3 μM compound, 60 min, >80% remaining at 60 min denoted >186, read-out: Liver Hepatocyte Stability: t1/2 (min)
Experimental: as §2

[10] = Liver hepatocyte stability, human; format: in vitro ADME; details: human hepatocytes, 3 μM compound, 60 min, >80% remaining at 60 min denoted >186, read-out: Liver Hepatocyte Stability: t1/2 (min)
Experimental: as §2

[11] = Rat pharmacokinetics in vivo; details: male Sprague Dawley rats
Experimental: The pharmacokinetics of compounds were studied in vivo in rats at doses of 1 mg/kg (IV) and 10 mg/kg (PO).
Male rats (Sprague Dawley) surgically prepared with a jugular vein cannula were treated with experimental compounds via intravenous administration (IV; n=3; 1 mg/kg) or oral administration (PO; n=3; 10 mg/kg). Compounds were formulated as a solution in 40:60 dimethylacetamide:saline (IV administration), a suspension in 1% methyl cellulose (viscosity: 15 cP), 0.1% Tween80 in water (PO administration: Example 3), a solution in 10% DMSO/10% Cremaphor/80% water (PO administration: Examples 4, 11, 21, 23, 25, 26, 32) or a solution in 10% DMSO/20% Cremaphor/70% water (PO administration: Examples 19, 20, 22, 24, 30). […] Serial blood samples were collected via the cannula at 0.02, 0.08, 0.25, 0.5, 1, 2, 4, 6, 8 and 24 h post IV dosing of compound, and at 0.08, 0.25, 0.5, 1, 2, 4, 6, 8 and 24 h post oral dosing of compound, and plasma was prepared by centrifugation and stored immediately at −80° C. Samples were subsequently thawed, prepared for analysis by protein precipitation with acetonitrile, and analysed by tandem LCMS using electrospray ionisation using a matrix-matched calibration curve. PK parameters were calculated from the resulting data.

## 3-[6-(Cyclopropylamino)-2-fluoropyridin-3-yl]-1-(oxetan-3-yl)-N-[(3S)-2-oxo-5-phenyl-1,3-dihydro-1,4-benzodiazepin-3-yl]pyrazole-4-carboxamide [Example 37]
[1]
  EC50: 78 nM
[2]
  CC50: > 25000 nM

## O=C(Nc1ccccc1F)N[C@H]1N=C(c2ccccc2)c2ccccc2NC1=O [RSV604]
[3]
  anti-RSV activity: sub-micromolar

## 3-[6-(Cyclopropylamino)-2-fluoropyridin-3-yl]-N-[(3S)-9-fluoro-2-oxo-5-phenyl-1,3-dihydro-1,4-benzodiazepin-3-yl]-1-(oxetan-3-yl)pyrazole-4-carboxamide [Example 36]
[1]
  EC50: 45 nM
[2]
  CC50: > 25000 nM
[4]
  Liver Microsomal Stability: t1/2 (min); rat: 93.2 min
[5]
  Liver Microsomal Stability: t1/2 (min); dog: 191 min
[6]
  Liver Microsomal Stability: t1/2 (min); human: 68.5 min

## O=C(N[C@H]1N=C(c2ccccc2)c2ccccc2NC1=O)c1cnn(C2CCOCC2)c1-c1ccc(NC2CC2)nc1F [Example 20, 5-[6-(Cyclopropylamino)-2-fluoropyridin-3-yl]-N-[(3S)-2-oxo-5-phenyl-1,3-dihydro-1,4-benzodiazepin-3-yl]-1-(oxan-4-yl)pyrazole-4-carboxamide]
[1]; human respiratory syncytial virus, HepG2
  EC50: 59 nM
[7]
  CC50: > 25000 nM
[4]; pH 7.4, read-out: Liver Microsomal Stability: t1/2 (min), rat
  half-life: 116 min
[5]; pH 7.4, read-out: Liver Microsomal Stability: t1/2 (min), dog
  half-life: 325 min
[6]; pH 7.4, read-out: Liver Microsomal Stability: t1/2 (min), human
  half-life: 83.1 min
[8]
  half-life: 115 min
[9]
  half-life: > 186 min
[10]
  half-life: 190 min
[11]; 8 h, doses 1 mg/kg (IV) and 10 mg/kg (PO)
  C 8 h: 25.7 ng/mL
[11]; rat, in vivo, IV 1 mg/kg
  Vd: 2.9 L/kg
  clearance: 32.9 mL/min/kg
[11]; rat, in vivo, IV 1 mg/kg, PO 10 mg/kg
  bioavailability: 23.9%
[11]; rat, in vivo, IV 1 mg/kg, read-out: IV t½ (converted)
  half-life: 1.5 h
[11]; rat, in vivo, PO 10 mg/kg, read-out: PO AUClast
  AUC(0-t): 1170 ng·h/mL
[11]; rat, in vivo, PO 10 mg/kg, read-out: PO t½ (converted)
  half-life: 1.4 h
[11]; rat, in vivo, doses 1 mg/kg (IV) and 10 mg/kg (PO)
  Cmax: 258 ng/mL
